Tests used:
Experiment in all cases: relative viability (nuclei count vs DMSO), 5 days (fraction); higher = more cells survive
[1] = compound: C1=CC=C2C(=C1)N=C(S2)C(C#N)C3=NC(=NC=C3)NCCC4=CN=CC=C4 + CC(=O)Nc1cccc(-n2c(=O)n(C3CC3)c(=O)c3c(Nc4ccc(I)cc4F)n(C)c(=O)c(C)c32)c1 [Trametinib] (partner 0.02 µM)
Outline: (§1)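 Dosing by pin tool came one day after lung cancer cell lines were seeded in 1536-well plates, using either one drug or a fixed anchor-drug dose plus five library-drug doses (not always all listed) in √10 steps. After 5 days, nuclei were counted on 4× images. Relative viability is treated-well nuclei count divided by vehicle-well nuclei count, and values are medians of duplicate plates.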

[2] = compound: COc1cc(N2CCC(N3CCN(C)CC3)CC2)ccc1Nc1ncc(Cl)c(Nc2ccccc2S(=O)(=O)C(C)C)n1 [NVP-TAE684] + CC1(C)CCC(c2ccc(Cl)cc2)=C(CN2CCN(c3ccc(C(=O)NS(=O)(=O)c4ccc(N[C@H](CCN5CCOCC5)CSc5ccccc5)c(S(=O)(=O)C(F)(F)F)c4)cc3)CC2)C1 [Navitoclax] (partner 0.5 µM)
Outline: as §1

[3] = compound: C#Cc1cccc(Nc2ncnc3cc(OC)c(OCCCCCCC(=O)NO)cc23)c1 [CUDC-101] + CS(=O)(=O)CCNCc1ccc(-c2ccc3ncnc(Nc4ccc(OCc5cccc(F)c5)c(Cl)c4)c3c2)o1 [Lapatinib] (partner 2 µM)
Outline: as §1

[4] = compound: COc1cc2/c(=N/c3ccc(Br)cc3F)nc[nH]c2cc1OCC1CCN(C)CC1 [Vandetanib] + CS(=O)(=O)CCNCc1ccc(-c2ccc3ncnc(Nc4ccc(OCc5cccc(F)c5)c(Cl)c4)c3c2)o1 [Lapatinib] (partner 2 µM)
Outline: as §1

Cell Line | relative viability ([1]; first compound 0.005 µM) | relative viability ([1]; first compound 0.01581 µM) | relative viability ([1]; first compound 0.05 µM) | relative viability ([1]; first compound 0.1581 µM) | relative viability ([1]; first compound 0.5 µM) | relative viability ([2]; first compound 0.6325 µM) | relative viability ([2]; first compound 2 µM) | relative viability ([3]; first compound 0.01 µM) | relative viability ([3]; first compound 0.03162 µM) | relative viability ([3]; first compound 0.1 µM) | relative viability ([3]; first compound 0.3162 µM) | relative viability ([3]; first compound 1 µM) | relative viability ([4]; first compound 0.02 µM) | relative viability ([4]; first compound 0.06325 µM) | relative viability ([4]; first compound 0.2 µM) | relative viability ([4]; first compound 0.6325 µM) | relative viability ([4]; first compound 2 µM) | relative viability ([2]; first compound 0.2 µM)
HCC-44 | 1.06 | 1.1 | 1.02 | 1.07 | 0.967 | 1.02 | 0.453 | 0.923 | 1.07 | 0.947 | 0.979 | 0.812 | 0.917 | 1 | 1.06 | 0.968 | 0.996 | –
EKVX | 0.228 | 0.328 | 0.282 | 0.299 | 0.294 | 0.907 | 0.613 | 0.255 | 0.199 | 0.22 | 0.203 | 0.169 | 0.2 | 0.184 | 0.183 | 0.2 | 0.215 | 0.994
NCI-H23 | – | 0.436 | 0.391 | 0.406 | 0.45 | 0.785 | 0.607 | 1.08 | 0.963 | 1.19 | 0.918 | 0.559 | 1.07 | 0.971 | 0.969 | 1.28 | 0.962 | 0.806
NCI-H2347 | 0.282 | 0.268 | 0.296 | 0.3 | 0.267 | 0.826 | 0.752 | 1.08 | 0.918 | 1.03 | 1.05 | 0.91 | 0.972 | 0.701 | 0.913 | 0.964 | 0.89 | 0.716
SK-LU-1 | 0.461 | 0.437 | 0.413 | 0.532 | 0.474 | 0.88 | 0.206 | 1.01 | 0.922 | 0.712 | 0.844 | 0.446 | 0.859 | 0.676 | 0.992 | 0.832 | 0.816 | 1.12
A549 | – | – | – | – | – | – | 0.263 | 0.975 | 1.01 | 0.946 | 0.821 | 0.386 | 1.05 | 0.935 | 0.905 | 1.01 | 0.946 | 1.38
LU99A | 0.463 | 0.543 | – | 0.661 | 0.555 | 0.769 | 0.362 | 1.2 | 0.889 | 0.987 | 0.861 | 0.321 | 0.973 | 0.869 | 1.01 | 0.828 | 1.04 | 0.802
NCI-H596 | 0.7 | 0.86 | 0.762 | 0.777 | 0.765 | 0.969 | 0.509 | 1.04 | 1.04 | 1.03 | 1.08 | 0.982 | 1.1 | 0.912 | 1.11 | 1.1 | 0.947 | 0.936
A-427 | 0.882 | 0.714 | 0.683 | 0.81 | 0.804 | – | 0.874 | 0.933 | 1.04 | 1 | 0.914 | 1.01 | 0.968 | 1.02 | 1.14 | 1.01 | 0.74 | 0.992
SW 900 | 0.586 | 0.806 | 0.584 | 1.06 | 0.648 | – | – | – | – | – | – | – | – | – | – | – | – | –
COR-L 105 | 0.379 | 0.423 | 0.412 | 0.474 | 0.498 | 0.74 | 0.593 | 0.425 | 0.356 | 0.316 | 0.264 | 0.226 | 0.322 | 0.307 | 0.325 | 0.366 | 0.356 | 0.717
LOU-NH91 | 0.794 | 0.806 | 0.764 | 0.794 | 0.779 | 0.607 | 0.463 | 0.843 | 0.772 | 0.764 | 0.825 | 0.641 | 0.739 | 0.761 | 0.783 | 0.764 | 0.799 | 0.644
COR-L23 | 0.582 | 0.547 | 0.597 | 0.717 | 0.608 | 0.943 | 0.544 | 1.02 | 1.02 | 0.889 | 1.1 | 0.449 | 1.08 | 0.906 | 1.03 | 0.96 | 1.01 | 1.12
HCC-15 | 0.396 | 0.418 | 0.369 | 0.378 | 0.356 | 0.681 | 0.375 | 0.857 | 0.908 | 0.831 | 0.845 | 0.698 | 0.824 | 0.772 | 0.798 | 0.878 | 0.937 | 0.72
LCLC-103H | 0.648 | 0.735 | 0.692 | 0.695 | 0.659 | – | – | – | – | – | – | – | – | – | – | – | – | –
HARA | 0.685 | 0.475 | 0.49 | 1.31 | 0.576 | – | 0.701 | 0.739 | 0.789 | 0.739 | 0.71 | 0.453 | 0.676 | 0.558 | 0.588 | 0.773 | 0.764 | 1.02
BEN | 1.08 | 1.11 | 1.15 | 1.05 | 1.2 | 0.0569 | 0.0697 | 0.925 | 0.628 | 0.707 | 0.739 | 0.539 | 0.75 | 0.686 | 0.677 | 0.742 | 0.812 | 0.188
LC-2-ad | 0.881 | 0.979 | 0.891 | 0.928 | 0.829 | 0.264 | 0.12 | 0.984 | 1.02 | 1.06 | 0.863 | 0.198 | 0.896 | 0.949 | 0.506 | 0.783 | 0.711 | 0.394
NCI-H1299 | – | – | – | – | – | 1.05 | 1.05 | 0.97 | 0.917 | 0.883 | 0.973 | 0.857 | 0.965 | 0.95 | 0.892 | 0.968 | 0.948 | 1.08
